Columns and labels:
hES cells [1] = experiment: Cell survival assay, 24 hours (Example 2); type: cell-based, human; details: for survival of hES cells plated from single cell suspension after 24 hours: O3 medium, absence of ROCK inhibitor
Description: Tissue cell culture plates were coated overnight at 4° C. with sterile solutions of the ECM proteins, such as human recombinant LN-521, all at a concentration of 30 μg/ml (5 μg/cm^2). Control plates were coated with Matrigel according to the STEMCELL Technologies' instructions. Prior to use, dishes were pre-warmed in an incubator for one hour after which prewarmed O3 medium was added without additional washing of the dish. After applying a fresh LN-521 solution to a new dish, the remaining LN-521 solution could be used at least once more. All the adhesion, survival, and inhibition of survival experiments were carried out using fresh coating materials.
Briefly, 96-well plates were coated by extracellular matrix proteins as described above and blocked by O3 medium containing bovine serum albumin. The ES cells were plated at cell density of 50,000 cells/cm^2 onto extracellular matrix-coated plates and left to adhere for 1 hour in a cell incubator. After that the plates were washed 3 times with the medium to remove the non-adherent cells, and then the adherent cells were fixed for 20 minutes by 5% glutaraldehyde, stained by 0.1% Crystal Violet. (Kebo Lab, Spanga, Sweden, www.kebolab.se). After one hour and 3 washes with water, Crystal Violet was extracted with 10% acetic acid and quantified by measuring optical density at 570 nm. All the experiments were performed in quadruplicate.
The survival assay was performed as described for the cell adhesion assay above, except that the cells were left in the cell incubator for 24 hours. For inhibition of survival assay, the cells were kept in a medium with function blocking antibodies at the concentrations recommended by the manufacturer or pathway inhibitors at concentrations indicated in the text for 30 minutes, and then plated on the coated dishes. All the experiments were performed in quadruplicate.
Pluripotent hES cells express α1, α5, β1, β2 and γ1 laminin chains. To compare the adhesion and clonal survival of hES cells plated from single cell suspension to different coating substrata, hES cells growing as monolayers on LN-511 or as clusters on a feeder layer were trypsinized into single cell suspension in O3 medium and plated on cell culture dishes coated with Matrigel, LN-111, LN-511, LN-521 or a mixture of LN-511 and LN-521, in the absence or presence of a ROCK inhibitor (Y-27632) and analyzed after 24 hours.

HS181 cells = experiment: Single cell survival / cell adhesion, 1 day after plating (Example 1); type: cell-based, human; details: for single cell survival / cells remaining attached 24 hours after plating: O3 medium without any additives, completely dissociated HS181 cells
Description: Human ES cells were cultured on r-laminin-521-coated laboratory dishes in chemically defined O3 medium (described in Rodin et al., Nature Biotechnol., vol. 28, pp. 611-615 (2010)) at 37° C. in 5% CO2. Cells were routinely passed once every 10-12 days by exposure to Trypsin-EDTA solution (GIBCO Invitrogen) for 5 minutes at 37° C. They were then gently pipetted to break into single-cell suspension and defined trypsin inhibitor (GIBCO Invitrogen) was added. The cell suspension was centrifuged […], the supernatant discarded, the cell pellet resuspended in prewarmed O3 medium, and cells were then passed through a 40 μm sieve. After that cells were plated on new r-laminin-521-coated dishes at a concentration 30 Kcells/cm^2 (1:25-1:30 split ratio). Cells were fed once a day with fresh medium prewarmed in an incubator for 1 hour, except for the first day after a passage, when only a few drops of fresh medium were added. Control cells of the same line were cultured on Matrigel (BD Biosciences) in O3 medium as described in Rodin et al., Nature Biotechnol., vol. 28, pp. 611-615 (2010). Control cells were passaged in pieces.
Ninety-six-well tissue cell culture plates were coated overnight at 4° C. with sterile solutions of the ECM proteins mouse LN-111 (Invitrogen), human recombinant LN-511, and human recombinant LN-521, all at a concentration of 30 μg/ml (5 μg/cm^2). For control cells, BD Matrigel™ hESC qualified (BD Biosciences) was used according to the manufacturer's instructions.
The assay was performed as described (Extracellular Matrix Protocols, 2000). Briefly, 96-well plates were coated by extracellular matrix proteins as described above and blocked by O3 medium containing bovine serum albumin. The ES cells were plated at a cell density of 600 cell/mm^2 upon extracellular matrix-coated plates and were left to adhere for either 1 hour or 1 day at the cell incubator. Non-adherent cells were washed away, and adherent cells were fixed for 20 min by 5% glutaraldehyde, stained by 0.1% Crystal Violet.

myosin light chain (MLC) = experiment: Western blot of phosphorylated myosin light chain; type: cell-based, human; details: one and six hours after plating
Description: HS181 cells were trypsinized into single cell suspension as described above. For inhibition experiments, the cells were kept in O3 medium with blocking antibodies or pathway inhibitors for 30 minutes and then 450K cells were plated on 35 mm dishes precoated with the appropriate matrix coating. For other experiments, same number of cells was plated directly after trypsinization. […] After two washings in ice-cold PBS, the plates with cells were snap frozen in liquid nitrogen and stored at −80° C. To prepare samples for western blots and ELISA, the plates were slowly thawed and kept on ice with 100-150 μl of lysis buffer (50 mM Tris-HCl, pH7.5, 150 mM NaCl, 0.5% deoxycholate, 0.5% SDS, 1% Triton X-100, 1% Igepal, Complete™ (Roche) and Phospho-Stop™ (Roche)) on top. Then, the cells were scraped, pipetted and sheared through a 27G ¾″ needle. After that, the cell pellets were clarified by centrifugation at 16,100 rcf for 15 minutes at 4° C. For western blots, 4-12% gradient gels were used for SDS electrophoresis and the proteins were transferred to PVDF membranes. The membrane was hybridized with the antibody of interest according to the manufacturer's instructions. Chemoluminescent HRP-substrate from Amersham Biosciences was used for visualization. For the densitometry analysis the films were scanned at 2,400 dpi and analyzed by the Chemilmager5500 program (1D-Multi Line densitometry mode). […]

mouse ES cells = details: without LIF or feeder cells; cited from earlier work
Integrin α6β1 = Integrin α6β1 (Homo sapiens, UniProt P05556+P23229); details: cited from earlier work
[2] = test system: human embryonic stem cell; experiment: Survival after dissociation into single cell suspension (description); type: cell-based; details: O3 medium; 30 Kcells/cm^2; precoated dishes
Description: In other aspects, the present disclosure provides a new material, isolated laminin-521, which permits human embryonic stem cell survival after dissociation into single cell suspension. The stem cells were dissociated into single cell suspension by Trypsin-EDTA treatment, pelleted by centrifugation, resuspended into O3 medium, filtered through a 40 μm sieve, and plated at a density of 30 Kcells/cm^2 on cell culture dishes precoated by either isolated laminin-521, laminin-511, or Matrigel. After one day in culture, the cells plated on Matrigel died, as is known in the art.

human ES cells = details: cited from earlier work
hES cells [3] = experiment: Clonal survival of individualized hES cells (Example 4); type: cell-based, human; details: mTeSR1
Description: hES cells were plated in mTeSR1 medium on different coatings at a density of 250 cells per cm^2 and monitored after 5 days in culture using an alkaline phosphatase staining kit.
Next, combinations of laminin-521 and E-Cadherin were tested to determine whether the combinations could sustain clonal survival of the cells. Fixed amounts of laminin-521 were used for the cell culture dish coating in combination with titrated E-Cadherin.
Additional tests were performed to test the effects of various modifications to the mTeSR1 medium. A mixture of E-Cadherin to laminin-521 in a ratio of about 1:10 w/w was used to coat the plates. […] Time-lapse photography of the cells confirmed that laminin-521/E-Cadherin coatings facilitated cell survival through proliferation of the single cells, not through the aggregation of different cells.

Chain of Integrin α6β1 (P23229 24-1130): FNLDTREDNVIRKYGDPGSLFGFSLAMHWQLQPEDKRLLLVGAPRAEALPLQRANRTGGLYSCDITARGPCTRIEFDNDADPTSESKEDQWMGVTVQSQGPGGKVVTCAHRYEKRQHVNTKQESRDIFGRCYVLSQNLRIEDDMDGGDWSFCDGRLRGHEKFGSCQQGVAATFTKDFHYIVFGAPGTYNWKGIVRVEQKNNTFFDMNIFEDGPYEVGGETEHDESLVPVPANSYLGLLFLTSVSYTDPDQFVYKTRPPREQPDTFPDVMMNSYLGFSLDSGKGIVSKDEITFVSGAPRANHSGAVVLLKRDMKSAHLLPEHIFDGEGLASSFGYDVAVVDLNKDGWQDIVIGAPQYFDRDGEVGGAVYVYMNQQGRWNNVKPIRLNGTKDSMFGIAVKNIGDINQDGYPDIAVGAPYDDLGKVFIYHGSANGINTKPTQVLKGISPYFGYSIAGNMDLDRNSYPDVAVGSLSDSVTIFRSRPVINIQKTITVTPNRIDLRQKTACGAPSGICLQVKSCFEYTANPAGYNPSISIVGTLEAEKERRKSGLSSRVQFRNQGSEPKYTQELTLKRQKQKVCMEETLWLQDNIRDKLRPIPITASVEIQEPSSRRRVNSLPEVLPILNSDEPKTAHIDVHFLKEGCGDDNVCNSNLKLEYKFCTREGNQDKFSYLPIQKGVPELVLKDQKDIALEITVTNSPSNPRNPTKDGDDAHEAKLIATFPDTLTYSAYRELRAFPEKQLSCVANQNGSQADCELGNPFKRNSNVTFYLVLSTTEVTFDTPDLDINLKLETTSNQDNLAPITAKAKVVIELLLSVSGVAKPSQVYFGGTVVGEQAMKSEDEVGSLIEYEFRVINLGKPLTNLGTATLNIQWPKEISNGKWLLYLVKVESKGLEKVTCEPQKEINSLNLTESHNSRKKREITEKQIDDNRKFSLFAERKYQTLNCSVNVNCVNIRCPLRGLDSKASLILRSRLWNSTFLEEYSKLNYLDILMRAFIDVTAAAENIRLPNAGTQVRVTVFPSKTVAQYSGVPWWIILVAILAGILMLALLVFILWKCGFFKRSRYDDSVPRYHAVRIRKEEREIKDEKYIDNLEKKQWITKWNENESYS
Chain of Integrin α6β1 (P05556 21-798): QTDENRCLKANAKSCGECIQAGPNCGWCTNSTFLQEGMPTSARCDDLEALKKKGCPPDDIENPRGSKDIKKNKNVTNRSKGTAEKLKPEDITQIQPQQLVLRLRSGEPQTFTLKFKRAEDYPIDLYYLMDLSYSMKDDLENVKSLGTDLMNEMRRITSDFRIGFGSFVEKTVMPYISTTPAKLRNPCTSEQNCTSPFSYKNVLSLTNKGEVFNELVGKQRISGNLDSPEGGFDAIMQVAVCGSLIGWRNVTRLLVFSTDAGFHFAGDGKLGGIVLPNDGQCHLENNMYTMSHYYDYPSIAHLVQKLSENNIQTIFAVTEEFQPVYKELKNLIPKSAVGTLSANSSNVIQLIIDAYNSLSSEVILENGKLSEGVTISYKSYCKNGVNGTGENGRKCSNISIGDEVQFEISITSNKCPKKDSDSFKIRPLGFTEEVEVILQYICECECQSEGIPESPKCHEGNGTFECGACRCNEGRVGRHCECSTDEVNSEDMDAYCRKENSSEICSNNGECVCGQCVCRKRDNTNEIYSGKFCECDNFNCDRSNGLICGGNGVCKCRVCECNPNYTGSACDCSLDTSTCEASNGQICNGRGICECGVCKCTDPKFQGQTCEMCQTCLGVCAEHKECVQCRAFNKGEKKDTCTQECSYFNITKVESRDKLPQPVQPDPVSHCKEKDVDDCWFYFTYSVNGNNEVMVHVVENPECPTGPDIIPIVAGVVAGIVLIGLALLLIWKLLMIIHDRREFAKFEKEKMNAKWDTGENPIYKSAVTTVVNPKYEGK

**Q.** What does the source list for `C[C@@H](N)[C@H]1CC[C@H](C(=O)Nc2ccncc2)CC1` [Y-27632, reference compound]?
**A.** cell shape of cells growing on LN-521 24 hours after plating (hES cells [1]; LN-521 row: absence of ROCK inhibitor, Y-27632 row: presence of ROCK inhibitor): spindle or crescent like shape; survival of hES cells after 24 hours in the presence of ROCK inhibitor (hES cells [1]; all coating surfaces): survived on all surfaces; cells remaining attached after one day with ROCK inhibitor (HS181 cells; O3 medium treated with Y-27632, 5 coatings): remained attached on all 5 coatings

**Q.** For “LN-121: human recombinant laminin with α1, β2 and γ1 chains produced in HEK293 cells”, which “survival of hES cells plated from single cell suspension after 24 hours” value (from here on “survival of hES cells plated … after 24 hours”) (hES cells [1]) is on record?
**A.** The value was “failed to survive”.

**Q.** What does the source list for “LN-511: human recombinant laminin-511 coating”?
**A.** phosphorylation of MLC compared with cells on Matrigel and LN-111 (myosin light chain (MLC)): even higher; survival of hES cells plated from single cell suspension after 24 hours (hES cells [1]): did so as single cells; time of supported self-renewal of mouse ES cells (mouse ES cells): over 5 months; single cell survival / cells remaining attached 24 hours after plating (HS181 cells): at a less extent; binding affinity of integrin α6β1 (Integrin α6β1): higher than that for LN-111; survival of hES cells plated from single cell suspension after one day in culture [2]: in most cases on laminin-511 survived and started to proliferate; time human ES cells maintain pluripotency and can generate teratomas in SCID mice (human ES cells): over 3 months

**Q.** With “albumin: albumin of the mTeSR1 medium, concentration increased 2×” as the molecule, how does the “effect of 2× increase in albumin concentration on clonal survival” value (hES cells [3]; laminin-521/E-Cadherin matrix) read?
**A.** Its value is “significantly improved clonal survival”.

**Q.** With “human recombinant LN-111: human recombinant laminin with α1, β1 and γ1 chains produced in HEK293 cells” as the molecule, how does the “survival of hES cells plated … after 24 hours” value (hES cells [1]) read?
**A.** Its value is “failed to survive”.

**Q.** With “LN-111: mouse laminin-111 (Invitrogen), indicated as LN-111 if not otherwise stated” as the molecule, how does the “survival of hES cells plated … after 24 hours” value (hES cells [1]) read?
**A.** Its value is “did not survive”.

**Q.** And the “single cell survival / cells remaining attached 24 hours after plating” value (HS181 cells)?
**A.** The value was “almost no cells remained attached”.

B1: E-Cadherin: epithelial-cadherin, most abundant cadherin isoform on the human ES cell surface (protein, UniProt P12830 155-882, looked up)
Cadherin-1: DWVIPPISCPENEKGPFPKNLVQIKSNKDKEGKVFYSITGQGADTPPVGVFIIERETGWLKVTEPLDRERIATYTLFSHAVSSNGNAVEDPMEILITVTDQNDNKPEFTQEVFKGSVMEGALPGTSVMEVTATDADDDVNTYNAAIAYTILSQDPELPDKNMFTINRNTGVISVVTTGLDRESFPTYTLVVQAADLQGEGLSTTATAVITVTDTNDNPPIFNPTTYKGQVPENEANVVITTLKVTDADAPNTPAWEAVYTILNDDGGQFVVTTNPVNNDGILKTAKGLDFEAKQQYILHVAVTNVVPFEVSLTTSTATVTVDVLDVNEAPIFVPPEKRVEVSEDFGVGQEITSYTAQEPDTFMEQKITYRIWRDTANWLEINPDTGAISTRAELDREDFEHVKNSTYTALIIATDNGSPVATGTGTLLLILSDVNDNAPIPEPRTIFFCERNPKPQVINIIDADLPPNTSPFTAELTHGASANWTIQYNDPTQESIILKPKMALEVGDYKINLKLMDNQNKDQVTTLEVSVCDCEGAAGVCRKAQPVEAGLQIPAILGILGGILALLILILLLLLFLRRRAVVKEPLLPPEDDTRDNVYYYDEEGGGEEDQDFDLSQLHRGLDARPEVTRNDVAPTLMSVPRYLPRPANPDEIGNFIDENLKAADTDPTAPPYDSLLVFDYEGSGSEAASLSSLNSSESDKDQDYDYLNEWGNRFKKLADMYGGGEDD
**Q.** For B1, which “clonal survival of individualized hES cells” value (hES cells [3]; 250 cells per cm^2, 5 days, alkaline phosphatase staining) is on record?
**A.** Its value is “Neither laminin-521 nor E-Cadherin alone permitted efficient clonal survival”.
